Experimental data from patent US5411969A, “Antihyperlipidemic/antioxidant dihydroquinolines” (Bristol-Myers Squibb Company, priority 1993, dated 1995).

How the values were obtained:
[1] = test system: human hepatoma HepG2 cells; assay: HepG2 cell culture model: cholesterol synthesis by 14C-acetate incorporation; type: cell-based; settings: 4 h incubation, read-out: Cholesterol Biosynthesis
Protocol: (§1) The human hepatoma HepG2 cell culture model was employed to compare the intrinsic activities of the representative compounds of the present invention relative to the tocotrienols. HepG2 cells were incubated with the indicated compounds for 4 hours at 10 μM. Cholesterol synthesis was assayed by ^14 C-acetate incorporation over the final hour of incubation, and HMG-CoA reductase suppression (specific activity) was assayed in the microsomal fraction isolated from parallel cultures at the end of the 4 hour incubation.

[2] = test system: hamster LDL; assay: Ex vivo LDL lipid peroxidation assay in hamsters (Cu++ oxidation; conjugated dienes or lipid peroxides); settings: 17 days; for Conj. Dienes lag ratio: treated/control
Protocol: As a secondary screen, test compounds are evaluated ex vivo for their oral effectiveness to inhibit LDL oxidation. […] Again, the conjugated diene assay is used to assess lipid peroxidation.
Hamsters (n=6 per group) were placed on an atherogenic diet (0.4% cholesterol+10% vitamin E stripped corn oil), and were orally dosed for 17 days with the indicated compounds at 75 mpk/day. The resistance of hamster LDL to copper-dependent oxidation in vitro was determined by conjugated dienes or lipid peroxides.

[3] = test system: cholesterol fed rabbits; settings: cited from earlier work
[4] = In vivo hypocholesterolemic activity in normocholesterolemic chickens: total serum cholesterol and HDL/LDL cholesterol pools; design: species or system chicken; settings: male chickens, orally dosed for 4 weeks at 4 mg/kg/day
Protocol: (§2) Hypocholesterolemic activity was evaluated for representative compounds of the present invention using γ-tocotrienol as a control in normocholesterolemic chickens. Newborn male chicks (6-10 for each group) were raised on a standard corn-soybean-based control diet for two weeks and then were switched to either control or experimental diets for four weeks. Drug treatment consisted of the addition of test compound to the corn-soybean-based. At the end of the feeding period, all the birds were fasted (about 36 hours) and refed (about 48 hours) to induce cholesterolgenic enzymes prior to sacrifice. The specific activity of HMG-CoA reductase, total serum cholesterol levels, and HDL/LDL cholesterol pools were examined (Table II).
(§3) Effects of Compounds of the present invention on Lipid
(§4) Parameters in Male Chickens
(§5) Orally dosed for 4-weeks at 4 mg/kg/day

[5] = test system: HMG-CoA reductase; assay: In vivo evaluation in normocholesterolemic chickens: specific activity of HMG-CoA reductase; design: species or system chicken; settings: male chickens, orally dosed for 4 weeks at 4 mg/kg/day
Protocol: as §2, §3, §4, §5

[6] = test system: LDL; assay: In vitro LDL oxidation (Cu++), conjugated diene formation; type: biochemical, rabbit; settings: for LDL Oxd. Inhib. mean lag ratio: 10 μM, rabbit plasma LDL, Cu++, treated/control lag time
[7] = in vivo; cited from earlier work
[8] = Redox potential by cyclic voltammetry; type: physicochemical; settings: for Oxd. Potential: cyclic voltammetry
Excerpt: One method for the measurement of general antioxidant capacity is stopped-flow kinetic analysis. (Mukai, et al., Bull. Chem. Soc. Jpn., 59: 3113-3116 (1986); Mukai, et al., J. Org. Chem., 54: 557-560 (1989); Mukai, et al. J. Org. Chem., 53: 430-432 (1988)). This is a sophisticated setup wherein, one measures radical transfer from a stable radical, (for example 2,6-di-tert-butyl-4-(4-methoxyphenyl)phenoxy), to a test compound spectrophotometrically as a function of time. […] (Mukai, et al., Bull. Chem. Soc. Jpn., 59: 3113-3116 (1986); Mukai, et al., J. Org. Chem., 54: 557-560 (1989); Mukai, et al. J. Org. Chem., 53: 430-432 (1988)). Voltammetry has been used by Moldeus et al. to study the antioxidant capacity of structurally related dibenzo[1,4]dichalcogenines as inhibitors of lipid peroxidation. (Cotgreave, et al., Biochem. Pharm., 42: 1481-85 (1991)). In their case, a strong correlation between voltammetric potential and the ability to inhibit lipid peroxidation was observed.
(Mukai, et al., J. Org. Chem., 53: 430-432 (1988); Mukai, et al., J. Org. Chem., 54: 552-556 (1989); Mukai, et al., J. Org. Chem., 56: 4188-4192 (1991)).

[9] = test system: HMG-CoA reductase; assay: HepG2 cell culture model: HMG-CoA reductase suppression (specific activity, microsomal fraction); type: cell-based, human; settings: 10 μM, 4 h incubation, HepG2 cells
Protocol: as §1

Structure (SMILES)	activity at 10 µM [1] [%]	lipid peroxide formation in LDL, % of Control, 1.5 h ([2]; 50 mg/kg/d oral)	lipid peroxide formation in LDL, % of Control, 3.0 h ([2]; 50 mg/kg/d oral)	Conj. Dienes lag ratio ([2]; 50 mg/kg/d oral)	Tot.-C [4]	LDL Oxd. Inhib. mean lag ratio [6]	other results
CC(C)=CCC/C(C)=C/CC/C(C)=C/CCCCc1ccc2c(c1)C(C)=CC(C)(C)N2 [Compound 11, 1,2-Dihydro-2,2,4-Trimethyl-6-[6,10,14-Trimethyl-5(E),9(E), 13-Pentadecatrienyl]Quinoline]	89	–	–	–	–	–	–
O=C1O[C@H]([C@@H](O)CO)C(O)=C1O [Na Ascorbate]	–	8 % of Control	91 % of Control	1.33	–	–	–
CC1(C)C=C(CS(=O)(=O)O)c2cc(Cc3ccc4c(c3)C(CS(=O)(=O)O)=CC(C)(C)N4)ccc2N1 [MTDQ-DA]	–	–	–	–	–	–	effects on various lipid parameters ([3]; cholesterol fed rabbits): fairly modest effects on various lipid parameters; plaque progression ([3]; relative to the cholesterol fed rabbit controls): completely inhibited plaque progression
CC1=CC(C)(C)Nc2ccc(OCCC/C=C(\C)CCc3cccc(C(F)(F)F)c3)cc21 [Compound 18]	42	–	–	–	61.2 % of Control	–	HDL-C [4]: 93.8 % of Control; LDL-C [4]: 26.0 % of Control; HMGR [5]: 66.4 % of Control
Cc1c(C)c2c(c(C)c1O)CCC(C)(CCCC(C)CCCC(C)CCCC(C)C)O2 (stereo not drawn) [α-Tocopherol]	–	15 % of Control	36 % of Control	> 3	–	1.01	–
CC(C)(Sc1cc(C(C)(C)C)c(O)c(C(C)(C)C)c1)Sc1cc(C(C)(C)C)c(O)c(C(C)(C)C)c1 [PROBUCOL, 4,4'-[(1-methylethylidene)bis(thio)]-bis[2,6-bis(1,1-dimethylethyl)]]	–	48 % of Control	93 % of Control	–	–	–	bioavailability [7]: suffers from bioavailability problems
Cc1cc(C(C)(C)C)c(O)c(C(C)(C)C)c1 [Butylatedhydroxytoluene]	–	–	–	–	–	1.38	–
CC(C)=CCC/C(C)=C/CC/C(C)=C/CCCSc1ccc2c(c1)C(C)=CC(C)(C)N2 [Compound 8, 1,2-Dihydro-2,2,4-Trimethyl-6-[(5,9,13-Trimethyl-4(E),8(E),1 2-tetradecatrienyl)thio]Quinoline]	3	–	–	–	100.9 % of Control	1.64	HDL-C [4]: 98.2 % of Control; LDL-C [4]: 99.1 % of Control; Oxd. Potential [8]: 1.20 Volts
CCOc1ccc2c(c1)C(C)=CC(C)(C)N2 [ETHOXYQUIN]	–	–	–	–	–	1.21	lipid peroxide formation in LDL, % of Control, 1.5 h ([2]; 75 mg/kg/d oral): 0 % of Control; lipid peroxide formation in LDL, % of Control, 3.0 h ([2]; 75 mg/kg/d oral): 13 % of Control; Conj. Dienes lag ratio ([2]; 75 mg/kg/d oral): 1.81
CC(C)=CCC/C(C)=C/CC/C(C)=C/CCCOc1ccc2c(c1)C(C)=CC(C)(C)N2 [Compound 4, 1,2-Dihydro-2,2,4-Trimethyl-6-[(5,9,13-Trimethyl-4(E),8(E),1 2-tetradecatrienyl)oxy]Quinoline]	48	3 % of Control	31 % of Control	1.57	65.9 % of Control	1.80	HMGR Suppression [9]: 40% of Control; LDL protective capacity compared with standard reference agents ([6]; in vitro and ex vivo (Tables III, IV), in words): superior LDL protective capacity; HDL-C [4]: 89.0 % of Control; LDL-C [4]: 45.3 % of Control; HMGR [5]: 83.8 % of Control; Oxd. Potential [8]: 0.47 Volts; oxidation potential compared with standard reference agents ([8]; over standard reference agents, in words): lower oxidation potential
CC(C)=CCC/C(C)=C/CC/C(C)=C/CCC1(C)CCc2cc(O)c(C)c(C)c2O1 (centres unmarked) [γ-Tocotrienol]	29	7 % of Control	67 % of Control	1.48	76.3 % of Control	1.27	HMGR Suppression [9]: 65% of Control
Cc1c(O)cc2c(c1C)OC(C)(CCCC(C)CCCC(C)CCCC(C)C)CC2 (centres unmarked) [γ-Tocopherol]	–	–	–	–	–	1.17	–
